Consider 19 molecules from PubChem BioAssay (NCI).

In general, TGI refers to the concentration at which net growth stops. Low readings indicate greater sensitivity of the cells, high ones lower sensitivity of the cells. As a reminder, the GI50 is the concentration that inhibits growth by half.

What all share (assay): DTP human tumour cell line panel, 48 h
For test [1], the system named is EKVX NSCLC.
Test [2] concerns KM12 colon.
For test [3], the system named is NCI-H226 lung.
Test [4] concerns OVCAR-5 ovarian.
Test [5] concerns HCC-2998 colon.
The subject of test [6] is ACHN renal.
The test system of test [7] is SK-MEL-28 melanoma.
The subject of test [8] is HL-60(TB) leukemia.
The test system of test [9] is SF-295 CNS.
The subject of test [10] is PC-3 prostate.

“And” between values parts separate entries of the source, which are not always exact repeats. Identical values can stand only once.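 96-well plates; 48 h exposure; 5 concentrations. Endpoints by linear interpolation between flanking doses. Not reached: highest tested concentration assigned. The concentration for 50% growth inhibition is given as GI50. The concentration for full growth arrest is given as TGI.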

As to `O=C(Cc1ccccc1)NS(=O)(=O)c1ccccc1`, the TGI in test [1], in [2], in test [3], in [4], in [5] and in test [6] was > 100 µM in each case. For the same molecule, the TGI in [7], in test [8] and in test [9] was > 100 µM in each case.
On to `CCOC(=O)NC1CC2CCC1(OC)C=C2C` (stereo not drawn), for which the total growth inhibition concentration (TGI) in test [1], in test [2], in test [3], in test [4], in test [5] and in test [6] was > 100 µM throughout. Moreover, the total growth inhibition concentration (TGI) in test [7], in test [8] and in [9] was > 100 µM in each case.
On to `COC(=O)C1=C(C)N(NC(N)=O)C(C)(O)C12CCOC2=O` (stereo not drawn), for which the TGI was > 100 µM in [1]; > 100 µM in test [2]; > 100 µM in test [3]; > 100 µM in [4]; 45.1 µM in test [5]; > 100 µM in test [6]. Also, the TGI in [7], in [8] and in test [9] was > 100 µM in each case.
Take `Cn1sc2ccccc2c1=S`: the TGI came to 27.6 µM in test [1]; 25.3 µM in [2]; 53.4 µM in test [3]; 37.4 µM in [4]; 45.9 µM in test [5]; 26.7 µM in [6]. The values for the TGI in [7], in test [8] and in [9] were 22 µM, 27.2 µM and 25.4 µM, respectively.
Regarding `CSC1(CC(=O)N2CCCCC2)C(=O)Nc2ccccc21` (stereo not drawn), the TGI in [1], in test [2], in [3], in [10], in test [4] and in [5] was > 100 µM in each case. The total growth inhibition concentration (TGI) in test [6], in [7] and in test [9] was > 100 µM in each case.
Turning to `O=C(O)[C@@H](NS(=O)(=O)c1ccc([N+](=O)[O-])cc1)c1ccccc1`, the total growth inhibition concentration (TGI) in [1], in test [2], in test [3], in test [4], in [5] and in test [6] was > 100 µM each time. Besides, the TGI in [7], in test [8] and in test [9] was > 100 µM each time.
For the molecule `Cc1c(CC/C(=N\Nc2ccc([N+](=O)[O-])cc2[N+](=O)[O-])c2ccccc2)c2ccccc2n1C`, the TGI in [1], in test [2], in [3], in [4], in test [5] and in test [6] was > 100 µM each time. Besides, the total growth inhibition concentration (TGI) was > 100 µM in [7], > 81.2 µM in [8] and > 100 µM in [9].
In the case of `Cc1ccc(NC(=O)c2cc3ccccc3cc2O)c(C)c1.Cc1ccc(NC(=O)c2cc3ccccc3cc2[O-])c(C)c1.[Ni+2]`, the GI50 was 2.57 µM in test [1]; 3.41 µM in test [2]; 3.49 µM in test [3]; 4.25 µM in test [4]; 2.63 µM in test [5]; 4.22 µM in [6]. For the same molecule, the GI50 in test [7] is 6.42 µM; in [9] it was 3.89 µM. The concentration for total growth inhibition (TGI) in [1] is 8.99 µM; in [2], 15.9 µM; in [3], 8.37 µM; in test [10] it was 5.38 µM; in [4] it was 17.9 µM; in test [5], 6.74 µM. The figures for the TGI in [7] and in test [9] were 88.1 µM and 14.3 µM, respectively.
For `C[CH2][Sn]([CH2]C)([O]C(=O)c1ccc(F)cc1)[O][Sn]([CH2]C)([CH2]C)[O]C(=O)c1ccc(F)cc1`, the GI50 was > 100 µM in test [1]; > 100 µM in [2]; 30.8 µM in [3]; > 100 µM in [4]; > 100 µM in test [5]; 79.8 µM in test [6]. In addition, the GI50 is 33.9 µM in test [7], > 100 µM in [8] and > 100 µM in test [9]. Also, the TGI in [1] is > 100 µM; in [2], > 100 µM; in test [3], 87.5 µM; in test [4] it was > 100 µM; in [5] it was > 100 µM; in [6], > 100 µM. For the same molecule, the TGI in test [7], in [8] and in [9] was > 100 µM each time.
`COc1ccccc1NC(=O)C(CC(C(=O)Nc1ccccc1OC)/C(C)=N/NC(=O)c1ccccc1O)/C(C)=N/NC(=O)c1ccccc1O` (stereo not drawn): the TGI in [1], in test [2], in [3], in test [4], in test [5] and in test [6] was > 100 µM throughout. Further, the TGI in test [7], in [8] and in [9] was > 100 µM throughout.
Regarding `CCCN1C(=O)CNC(=O)c2[nH]cnc21`, the TGI in [1], in test [2], in test [3], in test [4], in test [5] and in [6] was > 100 µM in each case. In addition, the TGI in test [7], in test [8] and in test [9] was > 100 µM each time.
Take `Nc1nc(=Nc2ccccc2)ss1`: the TGI in test [1], in test [2], in test [3], in [4], in test [5] and in test [6] was > 100 µM in each case. Moreover, the concentration for total growth inhibition (TGI) is > 100 µM in test [7], 60.2 µM in test [8] and > 100 µM in test [9].
For the molecule `COc1ccc2c(c1)C(=O)c1c-2c(NCCN(C)C)nc2ccccc12`, the GI50 was 3.06 µM in [1]; 2.94 µM in [2]; 16.2 µM in test [3]; 2.93 µM in test [10]; 4.23 µM in test [4]; 2.52 µM in test [5]. The GI50 is 1.17 µM in test [6], 13.9 µM in test [7] and 3.83 µM in [9]. Further, the TGI is 16.4 µM in test [1]; 23 µM in test [2]; 32.5 µM in test [3]; 14.2 µM in [10]; 16 µM in test [4]; 13.4 µM in test [5]. Also, the TGI in test [6] was 6.43 µM; in test [7], 26.9 µM; in test [9], 17.5 µM.
Consider `COC(=O)Cc1cc(=O)n2c([nH]c3ccccc32)c1C#N`, for which the concentration for total growth inhibition (TGI) in test [1], in [2], in test [3], in test [4], in [5] and in [6] was > 100 µM in each case. The total growth inhibition concentration (TGI) in test [7], in test [8] and in test [9] was > 100 µM throughout.
As to `CCCCCCCCCCCCC(CCCCCCCCCCCC)OP(=O)(O)O`, the TGI in test [1], in test [2], in [3], in test [4], in test [5] and in test [6] was > 100 µM in each case. The TGI in test [7], in test [8] and in test [9] was > 100 µM in each case.
As for `Cc1ccc(NC(=O)CC2C(=O)Nc3ccccc3S2=O)c(C)c1` (stereo not drawn), the TGI in [1] was > 100 µM; in test [2], > 100 µM; in test [3], 51.6 µM; in [4], > 100 µM; in test [5], > 72.6 µM; in [6] it was 72.9 µM. Moreover, the TGI in test [7] was > 100 µM; in test [8], 11 µM; in test [9], 29.7 µM.
Take `CC1=Nc2ccccc2C12C(c1ccccc1)C(c1ccccc1)C(=O)N1c3ccccc3CC12` (stereo not drawn): the TGI in test [1], in test [2], in test [3], in test [4], in test [5] and in test [6] was > 100 µM throughout. Further, the TGI in [7], in test [8] and in [9] was > 100 µM throughout.
As for `CC(C)c1cccc(C(C)C)c1NC(=O)CCC(=O)NN`, the total growth inhibition concentration (TGI) in [1], in [2], in test [3], in test [4], in [5] and in test [6] was > 100 µM each time. In addition, the total growth inhibition concentration (TGI) in test [7], in test [8] and in test [9] was > 100 µM throughout.
Consider `COC(C)(C)[C@H](O)C(O)CC(C)[C@@H]1CCC23CC12CCC1[C@@]2(C)CCC(OC(C)=O)C(C)(C)C2CC(OC2OC(COC(C)=O)C(O)C(O)C2O)[C@]13C` (stereo partly drawn), for which the GI50 is 10.9 µM in test [1]; 4.23 µM in [2]; 3.92 µM in test [4]; 6.08 µM in [6]; 5.41 µM in test [7]; 2.55 µM in [8]. Moreover, the GI50 in test [9] is 2.17 µM. The concentration for total growth inhibition (TGI) was 15.4 µM and 24.7 µM in test [1]; 7.55 µM and 14.1 µM in [2]; 16.9 µM in [3]; 8.54 µM and 14.3 µM in test [4]; 4.94 µM in [5]; 11.4 µM and 20 µM in [6]. Further, the TGI is 12.2 µM and 18.9 µM in [7]; 3.09 µM and 6.18 µM in test [8]; 10.1 µM and 7.53 µM in test [9].
